Reference: ChEMBL document CHEMBL1629667, “Activities of dalbavancin against a worldwide collection of 81,673 gram-positive bacterial isolates” (2009)
≈ marks a conversion by molar mass, not a printed value.

Tests used:
Staphylococcus aureus [1] = test: Antimicrobial activity against Oxacillin-susceptible Staphylococcus aureus assessed as percent resistant isolates by broth microdilution method; format: functional
Staphylococcus aureus [2] = test: Antimicrobial activity against Oxacillin-resistant Staphylococcus aureus assessed as percent resistant isolate by broth microdilution method; format: functional
Staphylococcus aureus [3] = test: Antimicrobial activity against Oxacillin-susceptible Staphylococcus aureus by broth microdilution method; format: functional
Staphylococcus aureus [4] = test: Antimicrobial activity against Oxacillin-resistant Staphylococcus aureus by broth microdilution method; format: functional
Staphylococcus [5] = test: Antimicrobial activity against Oxacillin-susceptible coagulase-negative Staphylococcus by broth microdilution method; format: functional
Staphylococcus [6] = test: Antimicrobial activity against Oxacillin-resistant coagulase-negative Staphylococcus by broth microdilution method; format: functional
Streptococcus [7] = test: Antimicrobial activity against Beta-hemolytic Streptococcus by broth microdilution method; format: functional
Staphylococcus [8] = test: Antimicrobial activity against Oxacillin-resistant coagulase-negative Staphylococcus assessed as percent susceptible isolate by broth microdilution method; format: functional
Streptococcus [9] = test: Antimicrobial activity against Beta-hemolytic Streptococcus assessed as percent susceptible isolate by broth microdilution method; format: functional
Streptococcus [10] = test: Antimicrobial activity against viridans group Streptococcus assessed as percent susceptible isolate by broth microdilution method; format: functional
Enterococcus faecalis [11] = test: Antimicrobial activity against Enterococcus faecalis VanA assessed as growth inhibition at 0.06 ug/ml by broth microdilution method; format: functional
Enterococcus faecalis [12] = test: Antimicrobial activity against Enterococcus faecalis VanA assessed as growth inhibition at 0.25 ug/ml by broth microdilution method; format: functional
Enterococcus faecalis [13] = test: Antimicrobial activity against Enterococcus faecalis VanA assessed as growth inhibition at 1 ug/ml by broth microdilution method; format: functional
Enterococcus faecalis [14] = test: Antimicrobial activity against Enterococcus faecalis VanA assessed as growth inhibition at 4 ug/ml by broth microdilution method; format: functional
Enterococcus faecalis [15] = test: Antimicrobial activity against Enterococcus faecalis VanB assessed as growth inhibition at =<[…] ug/ml by broth microdilution method; format: functional
Enterococcus faecalis [16] = test: Antimicrobial activity against Enterococcus faecalis VanB assessed as growth inhibition at 0.06 ug/ml by broth microdilution method; format: functional
Enterococcus faecalis [17] = test: Antimicrobial activity against Enterococcus faecalis VanB assessed as growth inhibition at 0.12 ug/ml by broth microdilution method; format: functional
Enterococcus faecalis [18] = test: Antimicrobial activity against Enterococcus faecalis VanB assessed as growth inhibition at 0.25 ug/ml by broth microdilution method; format: functional
Enterococcus faecalis [19] = test: Antimicrobial activity against Enterococcus faecalis VanB assessed as growth inhibition at 1 ug/ml by broth microdilution method; format: functional
Enterococcus faecalis [20] = test: Antimicrobial activity against Enterococcus faecalis VanB assessed as growth inhibition at 2 ug/ml by broth microdilution method; format: functional
Enterococcus faecalis [21] = test: Antimicrobial activity against Enterococcus faecalis VanB assessed as growth inhibition at 4 ug/ml by broth microdilution method; format: functional
Enterococcus faecium [22] = test: Antimicrobial activity against Enterococcus faecium VanA assessed as growth inhibition at =<[…] ug/ml by broth microdilution method; format: functional
Enterococcus faecium [23] = test: Antimicrobial activity against Enterococcus faecium VanA assessed as growth inhibition at 0.12 ug/ml by broth microdilution method; format: functional
Enterococcus faecium [24] = test: Antimicrobial activity against Enterococcus faecium VanA assessed as growth inhibition at 0.25 ug/ml by broth microdilution method; format: functional
Enterococcus faecium [25] = test: Antimicrobial activity against Enterococcus faecium VanA assessed as growth inhibition at 0.5 ug/ml by broth microdilution method; format: functional
Enterococcus faecium [26] = test: Antimicrobial activity against Enterococcus faecium VanA assessed as growth inhibition at 1 ug/ml by broth microdilution method; format: functional
Enterococcus faecium [27] = test: Antimicrobial activity against Enterococcus faecium VanA assessed as growth inhibition at 2 ug/ml by broth microdilution method; format: functional
Enterococcus faecium [28] = test: Antimicrobial activity against Enterococcus faecium VanA assessed as growth inhibition at 4 ug/ml by broth microdilution method; format: functional
Enterococcus faecium [29] = test: Antimicrobial activity against Enterococcus faecium VanB assessed as growth inhibition at =<[…] ug/ml by broth microdilution method; format: functional
Enterococcus faecium [30] = test: Antimicrobial activity against Enterococcus faecium VanB assessed as growth inhibition at 0.06 ug/ml by broth microdilution method; format: functional
Enterococcus faecium [31] = test: Antimicrobial activity against Enterococcus faecium VanB assessed as growth inhibition at 0.25 ug/ml by broth microdilution method; format: functional
Enterococcus faecium [32] = test: Antimicrobial activity against Enterococcus faecium VanB assessed as growth inhibition at 0.5 ug/ml by broth microdilution method; format: functional
Enterococcus faecium [33] = test: Antimicrobial activity against Enterococcus faecium VanB assessed as growth inhibition at 1 ug/ml by broth microdilution method; format: functional
Enterococcus faecium [34] = test: Antimicrobial activity against Enterococcus faecium VanB assessed as growth inhibition at 2 ug/ml by broth microdilution method; format: functional
[35] = system: Streptococcus sp. 'group A'; test: Antimicrobial activity against Beta-hemolytic Streptococcus sp. 'group A' assessed as growth inhibition at 0.12 ug/ml by broth microdilution method; format: functional
[36] = system: Streptococcus sp. 'group A'; test: Antimicrobial activity against Beta-hemolytic Streptococcus sp. 'group A' assessed as growth inhibition at 0.25 ug/ml by broth microdilution method; format: functional
[37] = system: Streptococcus sp. 'group B'; test: Antimicrobial activity against Beta-hemolytic Streptococcus sp. 'group B' assessed as growth inhibition at =<[…] ug/ml by broth microdilution method; format: functional
[38] = system: Streptococcus sp. 'group B'; test: Antimicrobial activity against Beta-hemolytic Streptococcus sp. 'group B' assessed as growth inhibition at 0.06 ug/ml by broth microdilution method; format: functional
[39] = system: Streptococcus sp. 'group B'; test: Antimicrobial activity against Beta-hemolytic Streptococcus sp. 'group B' assessed as growth inhibition at 0.12 ug/ml by broth microdilution method; format: functional
[40] = system: Streptococcus sp. 'group B'; test: Antimicrobial activity against Beta-hemolytic Streptococcus sp. 'group B' assessed as growth inhibition at 0.25 ug/ml by broth microdilution method; format: functional
[41] = Antimicrobial activity against Beta-hemolytic Streptococcus sp. 'group C' assessed as growth inhibition at =<[…] ug/ml by broth microdilution method; format: functional
[42] = Antimicrobial activity against Beta-hemolytic Streptococcus sp. 'group C' assessed as growth inhibition at 0.06 ug/ml by broth microdilution method; format: functional
[43] = Antimicrobial activity against Beta-hemolytic Streptococcus sp. 'group G' assessed as growth inhibition at 0.12 ug/ml by broth microdilution method; format: functional
Streptococcus sp. [44] = test: Antimicrobial activity against Beta-hemolytic Streptococcus sp. […]; format: functional, Group F
Streptococcus sp. [45] = test: Antimicrobial activity against Beta-hemolytic Streptococcus sp. Group F assessed as growth inhibition at 0.06 ug/ml by broth microdilution method; format: functional
Streptococcus sp. [46] = test: Antimicrobial activity against Beta-hemolytic Streptococcus sp. Group F assessed as growth inhibition at 0.12 ug/ml by broth microdilution method; format: functional
Staphylococcus [47] = test: Antimicrobial activity against Oxacillin-susceptible coagulase-negative Staphylococcus assessed as percent resistant isolate by broth microdilution method; format: functional
Staphylococcus [48] = test: Antimicrobial activity against Oxacillin-resistant coagulase-negative Staphylococcus assessed as percent resistant isolate by broth microdilution method; format: functional

## CN[C@H](CC(C)C)C(=O)N[C@H]1C(=O)N[C@@H](CC(N)=O)C(=O)N[C@H]2C(=O)N[C@H]3C(=O)N[C@H](C(=O)N[C@H](C(=O)O)c4cc(O)cc(O)c4-c4cc3ccc4O)[C@H](O)c3ccc(c(Cl)c3)Oc3cc2cc(c3O[C@@H]2O[C@H](CO)[C@@H](O)[C@H](O)[C@H]2O[C@H]2C[C@](C)(N)[C@H](O)[C@H](C)O2)Oc2ccc(cc2Cl)[C@H]1O [VANCOMYCIN]
Staphylococcus aureus [1]
  Activity: 0%
Staphylococcus aureus [2]
  Activity: 0%
Staphylococcus aureus [3]
  MIC50: 1 mg/L (≈ 0.69 µM)
  MIC90: 1 mg/L (≈ 0.69 µM)
Staphylococcus aureus [4]
  MIC50: 1 mg/L (≈ 0.69 µM)
  MIC90: 1 mg/L (≈ 0.69 µM)
Staphylococcus [5]
  MIC50: 1 mg/L (≈ 0.69 µM)
  MIC90: 2 mg/L (≈ 1.38 µM)
Staphylococcus [6]
  MIC50: 1 mg/L (≈ 0.69 µM)
  MIC90: > 2 mg/L
Streptococcus [7]
  MIC50: 0.5 mg/L (≈ 0.345 µM)
  MIC90: 0.5 mg/L (≈ 0.345 µM)
Staphylococcus [8]
  Activity: >99.9%
Streptococcus [9]
  Activity: 100%
Streptococcus [10]
  Activity: 99.9%
Enterococcus faecalis [11]
  inhibition at 0.06 µg/mL: 0.9%
Enterococcus faecalis [12]
  inhibition at 0.25 µg/mL: 3.9%
Enterococcus faecalis [13]
  inhibition at 1 µg/mL: 4.3%
Enterococcus faecalis [14]
  inhibition at 4 µg/mL: 14.8%
Enterococcus faecalis [15]
  inhibition (INH): 9.5%
Enterococcus faecalis [16]
  inhibition at 0.06 µg/mL: 33.3%
Enterococcus faecalis [17]
  inhibition at 0.12 µg/mL: 70.2%
Enterococcus faecalis [18]
  inhibition at 0.25 µg/mL: 70.2%
Enterococcus faecalis [19]
  inhibition at 1 µg/mL: 78.6%
Enterococcus faecalis [20]
  inhibition at 2 µg/mL: 85.7%
Enterococcus faecalis [21]
  inhibition at 4 µg/mL: 91.7%
Enterococcus faecium [22]
  inhibition (INH): 0.1%
Enterococcus faecium [23]
  inhibition at 0.12 µg/mL: 1.2%
Enterococcus faecium [24]
  inhibition at 0.25 µg/mL: 3.1%
Enterococcus faecium [25]
  inhibition at 0.5 µg/mL: 6.6%
Enterococcus faecium [26]
  inhibition at 1 µg/mL: 11.5%
Enterococcus faecium [27]
  inhibition at 2 µg/mL: 18.3%
Enterococcus faecium [28]
  inhibition at 4 µg/mL: 33.1%
Enterococcus faecium [29]
  inhibition (INH): 26.1%
Enterococcus faecium [30]
  inhibition at 0.06 µg/mL: 56%
Enterococcus faecium [31]
  inhibition at 0.25 µg/mL: 77.6%
Enterococcus faecium [32]
  inhibition at 0.5 µg/mL: 85.1%
Enterococcus faecium [33]
  inhibition at 1 µg/mL: 90.3%
Enterococcus faecium [34]
  inhibition at 2 µg/mL: 94%
[35]
  inhibition at 0.12 µg/mL: > 99.9%
[36]
  inhibition at 0.25 µg/mL: 100%
[37]
  inhibition (INH): 90.3%
[38]
  inhibition at 0.06 µg/mL: 98%
[39]
  inhibition at 0.12 µg/mL: 99.6%
[40]
  inhibition at 0.25 µg/mL: 100%
[41]
  inhibition (INH): 99.4%
[42]
  inhibition at 0.06 µg/mL: 100%
[43]
  inhibition at 0.12 µg/mL: 100%
Streptococcus sp. [44]
  inhibition (INH): 97.1%
Streptococcus sp. [45]
  inhibition at 0.06 µg/mL: 97.1%
Streptococcus sp. [46]
  inhibition at 0.12 µg/mL: 100%
Staphylococcus [47]
  Activity: 0%
Staphylococcus [48]
  Activity: 0%
